Our source for the T/C values is PubChem BioAssay AID330 (DTP/NCI, 2004).

Where “and” joins values, the source holds several entries; their conditions need not be identical. Equal entries are not always repeated. Inconclusive results and toxic doses are left out.

This test relates to P388 leukemia ip, CD2F1 mice, survival T/C. As to the kind of experiment: NCI In Vivo Anticancer Drug Screen. Data for tumor model P388 Leukemia (intraperitoneal) in CD2F1 (CDF1) mice. To be noted: endpoint: median survival time, higher = longer survival. In short, it runs like this: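 Mice carrying the transplanted tumor received test compound or vehicle. Survival was recorded in each group, and the value is the treated-group measurement divided by that of the vehicle-treated control group.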

Setting [1] is: dose: 50.0 mg/kg/injection, schedule: Q01DX005 (ip), vehicle: Klucel (hydroxypropylcellulose) (HPC).
The mark [2] stands for this setting: dose: 100.0 mg/kg/injection, schedule: Q01DX005 (ip), vehicle: Klucel (hydroxypropylcellulose) (HPC).
[3] abbreviates: dose: 200.0 mg/kg/injection, schedule: Q01DX005 (ip), vehicle: Klucel (hydroxypropylcellulose) (HPC).
Where [4] appears, read: dose: 6.25 mg/kg/injection, schedule: Q01DX009 (ip), vehicle: Klucel (hydroxypropylcellulose) (HPC).
Where [5] appears, read: dose: 12.5 mg/kg/injection, schedule: Q01DX009 (ip), vehicle: Klucel (hydroxypropylcellulose) (HPC).
Setting [6] is: dose: 25.0 mg/kg/injection, schedule: Q01DX009 (ip), vehicle: Klucel (hydroxypropylcellulose) (HPC).
Setting [7] is: dose: 50.0 mg/kg/injection, schedule: Q01DX009 (ip), vehicle: Klucel (hydroxypropylcellulose) (HPC).
Where [8] appears, read: dose: 100.0 mg/kg/injection, schedule: Q01DX009 (ip), vehicle: Klucel (hydroxypropylcellulose) (HPC).
Setting [9] is: dose: 200.0 mg/kg/injection, schedule: Q01DX009 (ip), vehicle: Klucel (hydroxypropylcellulose) (HPC).
Setting [10] is: dose: 50.0 mg/kg/injection, schedule: Q01DX005 (ip), vehicle: saline.
Setting [11] is: dose: 100.0 mg/kg/injection, schedule: Q01DX005 (ip), vehicle: saline.
The mark [12] stands for this setting: dose: 200.0 mg/kg/injection, schedule: Q01DX005 (ip), vehicle: saline.

Turning to `Cc1ccc(NC(=S)SCc2ccc([N+](=O)[O-])cc2)cc1C`, the T/C is 89 % of control (dose: 50.0 mg/kg/injection, schedule: Q01DX009 (ip), vehicle: suspension in saline); 107 % of control (dose: 100.0 mg/kg/injection, schedule: Q01DX009 (ip), vehicle: suspension in saline); 101 % of control (dose: 200.0 mg/kg/injection, schedule: Q01DX009 (ip), vehicle: suspension in saline).
As to `Cc1cc(N/N=C/c2ccc(Br)cc2)c2cc3c(cc2n1)OCO3`, the T/C by setting is: under setting [1], 94 % of control; under setting [2], 96 % of control; under setting [3], 96 % of control.
As for `CCOC/C=C\C(C)(C)C`, the T/C is, setting by setting: (dose: 50.0 mg/kg/injection, schedule: Q01DX001 (ip), vehicle: saline) 107 % of control; (dose: 100.0 mg/kg/injection, schedule: Q01DX001 (ip), vehicle: saline) 107 % of control; (dose: 200.0 mg/kg/injection, schedule: Q01DX001 (ip), vehicle: saline) 99 % of control.
In the case of `CCN(CC)CCC(O)(c1ccc2c(c1)OCO2)c1cc(OC)c(OC)c(OC)c1` (centres undefined), the T/C was 103 % of control and 93 % of control and 94 % of control under setting [1]; 101 % of control under setting [3].
As for `N#CCCn1nnc2ccccc21`, the T/C is 91 % of control under setting [4], 94 % of control under setting [5], 95 % of control under setting [6] and 88 % of control under setting [7].
As to `CS(=O)(=O)OCCN(CCOS(C)(=O)=O)c1ccc(C=Nc2ccc(-c3csc(COc4ccccc4)n3)cc2)cc1`, the T/C reads like this: under setting [5], 150 % of control and 151 % of control; under setting [6], 151 % of control and 154 % of control and 164 % of control; (dose: 25.0 mg/kg/injection, schedule: Q01DX009 (oral), vehicle: Klucel (hydroxypropylcellulose) (HPC)) 101 % of control and 104 % of control; under setting [7], 162 % of control and 164 % of control and 166 % of control; (dose: 50.0 mg/kg/injection, schedule: Q01DX009 (oral), vehicle: Klucel (hydroxypropylcellulose) (HPC)) 101 % of control and 106 % of control; (dose: 100.0 mg/kg/injection, schedule: Q01DX009 (oral), vehicle: Klucel (hydroxypropylcellulose) (HPC)) 102 % of control and 108 % of control. Also, the T/C runs as follows: (dose: 200.0 mg/kg/injection, schedule: Q01DX009 (oral), vehicle: Klucel (hydroxypropylcellulose) (HPC)) 107 % of control; (dose: 400.0 mg/kg/injection, schedule: Q01DX009 (ip), vehicle: Klucel (hydroxypropylcellulose) (HPC)) 112 % of control; (dose: 400.0 mg/kg/injection, schedule: Q01DX009 (oral), vehicle: Klucel (hydroxypropylcellulose) (HPC)) 109 % of control; (dose: 800.0 mg/kg/injection, schedule: Q01DX009 (oral), vehicle: Klucel (hydroxypropylcellulose) (HPC)) 109 % of control.
`CC1(C)CCCC2(C)C1CCC1(C)OC3=CC(=O)C(O)=CC3=CC12` (centres undefined): the T/C reads like this: under setting [4], 100 % of control; under setting [5], 112 % of control; under setting [6], 119 % of control.
Take `C(=C\c1ccc2ccccc2n1)/c1ccc2c(c1)OCO2`: the T/C (dose: 100.0 mg/kg/injection, schedule: Q01DX009 (ip), vehicle: saline with Tween-80) is 105 % of control; the T/C (dose: 200.0 mg/kg/injection, schedule: Q01DX009 (ip), vehicle: saline with Tween-80) is 95 % of control; the T/C (dose: 400.0 mg/kg/injection, schedule: Q01DX009 (ip), vehicle: saline with Tween-80) was 110 % of control.
`COc1ccc2ccc(CCC(=O)O)cc2c1`: the T/C (dose: 12.5 mg/kg/injection, schedule: Q01DX009 (ip), vehicle: distilled water + Tween-80) is 100 % of control; the T/C (dose: 25.0 mg/kg/injection, schedule: Q01DX009 (ip), vehicle: distilled water + Tween-80) was 100 % of control; the T/C (dose: 50.0 mg/kg/injection, schedule: Q01DX009 (ip), vehicle: distilled water + Tween-80) is 94 % of control; the T/C (dose: 100.0 mg/kg/injection, schedule: Q01DX009 (ip), vehicle: distilled water + Tween-80) was 99 % of control; the T/C (dose: 200.0 mg/kg/injection, schedule: Q01DX009 (ip), vehicle: distilled water + Tween-80) is 108 % of control.
For `NC(=O)N/N=C/c1cccc(O)c1O`, the T/C is 101 % of control under setting [7], 107 % of control under setting [8] and 116 % of control under setting [9].
As for `O=S(=O)(Nc1ncccn1)c1ccc(N=Cc2c3ccccc3nc3cc(Cl)ccc23)cc1`, the T/C by setting is: (dose: 50.0 mg/kg/injection, schedule: Q01DX005 (ip), vehicle: saline with Tween-80) 91 % of control; (dose: 100.0 mg/kg/injection, schedule: Q01DX005 (ip), vehicle: saline with Tween-80) 90 % of control; (dose: 200.0 mg/kg/injection, schedule: Q01DX005 (ip), vehicle: saline with Tween-80) 89 % of control.
Take `CN(C)c1ccc(/C=N/NC(=O)CNC(=O)c2ccccc2)cc1`: the T/C was 94 % of control (dose: 60.0 mg/kg/injection, schedule: Q01DX005 (ip), vehicle: saline with Tween-80); 92 % of control (dose: 120.0 mg/kg/injection, schedule: Q01DX005 (ip), vehicle: saline with Tween-80); 96 % of control (dose: 240.0 mg/kg/injection, schedule: Q01DX005 (ip), vehicle: saline with Tween-80).
In the case of `Cc1nn2cc(-c3ccc4ccccc4c3)nc2[nH]c1=O`, the T/C was 100 % of control (dose: 100.0 mg/kg/injection, schedule: Q01DX001 (ip), vehicle: Klucel (hydroxypropylcellulose) (HPC)); 99 % of control (dose: 200.0 mg/kg/injection, schedule: Q01DX001 (ip), vehicle: Klucel (hydroxypropylcellulose) (HPC)); 100 % of control (dose: 400.0 mg/kg/injection, schedule: Q01DX001 (ip), vehicle: Klucel (hydroxypropylcellulose) (HPC)).
`Cn1c(=O)n2n(c1=O)C1CCC2CC1`: the T/C under setting [10] was 98 % of control, the T/C under setting [11] is 102 % of control and the T/C under setting [12] was 100 % of control.
The like results for `O=c1oc2ccccc2c(O)c1C(c1ccc2c(c1)OCO2)N1CCOCC1` (centres undefined) were, in that order, 113 % of control, 110 % of control and 103 % of control.
Turning to `CC1(C)C(=O)C2=C(Nc3ccccc3C2C(C)(C)C)c2ccccc21` (centres undefined), the T/C reads like this: under setting [1], 99 % of control; under setting [2], 93 % of control; under setting [3], 92 % of control.
In the case of `Cc1cc(C)c2c(c1)sc1nncn12`, the T/C runs as follows: under setting [7], 118 % of control; under setting [8], 94 % of control; under setting [9], 92 % of control.
The like results for `Cc1ccc(S(=O)(=O)N(C)c2ccc(Cl)cc2C2=NCCc3ccccc32)cc1` were, in that order, 100 % of control, 101 % of control and 101 % of control.
As to `COc1ccc(C2CC(=O)N(CN3CCN(c4ccccc4)CC3)C(=O)C2)cc1`, the T/C is, setting by setting: (dose: 12.5 mg/kg/injection, schedule: Q01DX009 (ip), vehicle: saline with Tween-80) 98 % of control; (dose: 25.0 mg/kg/injection, schedule: Q01DX009 (ip), vehicle: saline with Tween-80) 93 % of control; (dose: 50.0 mg/kg/injection, schedule: Q01DX009 (ip), vehicle: saline with Tween-80) 87 % of control and 92 % of control.
As for `O=C1CCCC2CCC(=O)C12` (centres undefined), the T/C (dose: 100.0 mg/kg/injection, schedule: Q04DX003 (ip), vehicle: other) is 114 % of control; the T/C (dose: 200.0 mg/kg/injection, schedule: Q04DX003 (ip), vehicle: other) was 97 % of control; the T/C (dose: 400.0 mg/kg/injection, schedule: Q04DX003 (ip), vehicle: other) is 106 % of control.
